Data set [1] can be described thus: Cmax in C57BL/6J mouse blood infected with Mycobacterium tuberculosis H37Rv at 170 mg/kg, po administered once daily for 4 consecutive days starting from 5 days post infection. The class given is ADME, organism-based. Set-up: dose 170 mg/kg, route oral.
A short description of data set [2]: AUC in C57BL/6J mouse blood infected with Mycobacterium tuberculosis H37Rv at 170 mg/kg, po administered once daily for 4 consecutive days starting from 5 days post infection and measured up to 6 hrs post dose. The class given is ADME, organism-based. Set-up: time < 6 hr, dose 170 mg/kg, route oral.
Data set [3] is described as follows: Lipophilicity, log D of compound at pH 7.4 by chromatographic method. The class given is physicochemical. The settings on record: buffer.
Data set [4] is described as follows: Intrinsic clearance in mouse microsomes assessed as per gram protein at 0.5 uM after 30 mins in presence of NADPH by LC-MS/MS analysis. The class given is ADME, Microsome. The settings on record: 0.5 h.
Data set [5] can be described thus: Intrinsic clearance in human microsomes assessed as per gram protein at 0.5 uM after 30 mins in presence of NADPH by LC-MS/MS analysis. The class given is ADME, Microsome. The settings on record: 0.5 h.
A short description of data set [6]: Cmax in C57BL/6J mouse blood infected with Mycobacterium tuberculosis H37Rv at 200 mg/kg, po administered once daily for 4 consecutive days starting from 5 days post infection. The class given is ADME, organism-based. Set-up: dose 200 mg/kg, route oral.
A short description of data set [7]: AUC in C57BL/6J mouse blood infected with Mycobacterium tuberculosis H37Rv at 200 mg/kg, po administered once daily for 4 consecutive days starting from 5 days post infection and measured after 24 hrs post dose. The class given is ADME, organism-based. Also on record: dose 200 mg/kg, time < 24 hr, route oral.

Molecules are shown by their SMILES. Bounds are passed on as bounds.

For the compound `CC1(c2ccc(-n3cnnn3)cc2)NC(=O)N(CC(=O)c2ccc(F)cc2F)C1=O` (configuration not stated), the highest concentration (Cmax) – broadly, the highest concentration seen after dosing – in data set [1] came to 1870 ng/mL. Besides, the area under the curve (AUC) (as a rule, the area under the concentration-time curve, a measure of exposure) at 6 h in data set [2] was 6380 ng·h/mL.

With `CC1(c2ccc(S(N)(=O)=O)cc2)NC(=O)N(CC(=O)c2ccc(F)cc2F)C1=O` (racemic), the chromatographic logD – broadly, a lipophilicity value derived from retention on a column – in data set [3] was determined as 3.19. Moreover, the clearance in data set [4] is 2.67 mL/min/g; in data set [5] it was < 0.4 mL/min/g. For the same compound, the Cmax in data set [6] is 6380 ng/mL. This compound returned an AUC at 24 h in data set [7] of 31400 ng·h/mL.

Values taken from ChEMBL document CHEMBL4402609, “Optimization of Hydantoins as Potent Antimycobacterial Decaprenylphosphoryl-β-d-Ribose Oxidase (DprE1) Inhibitors” (J Med Chem, 2020).
